{"source": "ChEMBL document CHEMBL1128153", "about": "“Acetylcholinesterase inhibition by alkaloids of the ant's venom Monomorium minutum” (Bioorg Med Chem Lett, 1995)", "key": {"ant": {"system": "ant", "experiment": "Evaluated for the amount of compound present in ant's venom Monomorium minutum.", "assay_type": "functional"}, "[1]": {"experiment": "Partition coefficient (logP)", "assay_type": "physicochemical", "conditions": "octanol/water"}, "Acetylcholinesterase": {"target": "Acetylcholinesterase (Electrophorus electricus, UniProt O42275)", "sequence (O42275 whole entry)": "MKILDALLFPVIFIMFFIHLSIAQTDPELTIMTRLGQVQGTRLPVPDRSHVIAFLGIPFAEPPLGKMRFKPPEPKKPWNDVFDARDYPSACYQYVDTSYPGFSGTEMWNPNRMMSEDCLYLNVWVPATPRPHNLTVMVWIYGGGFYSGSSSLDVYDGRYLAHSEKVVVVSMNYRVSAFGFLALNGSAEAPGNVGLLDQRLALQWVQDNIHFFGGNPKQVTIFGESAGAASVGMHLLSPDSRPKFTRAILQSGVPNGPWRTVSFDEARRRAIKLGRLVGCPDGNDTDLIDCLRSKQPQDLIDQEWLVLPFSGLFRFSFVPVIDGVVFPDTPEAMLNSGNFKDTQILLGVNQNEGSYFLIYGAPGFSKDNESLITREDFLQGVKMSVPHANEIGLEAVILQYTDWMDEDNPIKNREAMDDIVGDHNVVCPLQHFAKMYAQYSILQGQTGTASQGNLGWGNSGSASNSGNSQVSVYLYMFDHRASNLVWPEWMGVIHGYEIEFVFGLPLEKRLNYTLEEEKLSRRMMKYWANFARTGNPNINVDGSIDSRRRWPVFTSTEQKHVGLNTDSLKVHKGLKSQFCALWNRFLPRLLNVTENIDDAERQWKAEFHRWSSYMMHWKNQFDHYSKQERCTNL"}}}
{"smiles": "C=CCCCCC1=NC(CCCCCCCCC)CC1", "note": "(stereo not drawn)", "values": [{"measurement": "Venom", "setting": "ant", "result": 4.4, "unit": "%"}, {"measurement": "logP", "setting": "[1]", "result": 8.39}, {"measurement": "Ki", "setting": "Acetylcholinesterase", "result": 5000, "unit": "nM"}]}
{"smiles": "C=CCCCCCCCC1CCC(CCCCC=C)N1", "note": "(stereo not drawn)", "values": [{"measurement": "Venom", "setting": "ant", "result": 29.8, "unit": "%"}, {"measurement": "logP", "setting": "[1]", "result": 7.32}, {"measurement": "Ki", "setting": "Acetylcholinesterase", "result": 2500, "unit": "nM"}]}
{"smiles": "C=CCCCCC1CCC(CCCCCCCCC)N1", "note": "(stereo not drawn)", "values": [{"measurement": "Venom", "setting": "ant", "result": 58.7, "unit": "%"}, {"measurement": "logP", "setting": "[1]", "result": 7.68}, {"measurement": "Ki", "setting": "Acetylcholinesterase", "result": 1500, "unit": "nM"}]}
{"smiles": "CN(C)C(=O)Oc1cccc([N+](C)(C)C)c1", "note": "[NEOSTIGMINE BROMIDE]", "values": [{"measurement": "Ki", "setting": "Acetylcholinesterase", "result": 1000, "unit": "nM"}]}
{"smiles": "C=CCCCCCCCC1=NC(CCCCC=C)CC1", "note": "(stereo not drawn)", "values": [{"measurement": "Venom", "setting": "ant", "result": 0.2, "unit": "%"}, {"measurement": "logP", "setting": "[1]", "result": 8.02}, {"measurement": "Ki", "setting": "Acetylcholinesterase", "result": 13000, "unit": "nM"}]}
